Measured values from patent US11591352B2, “Method for treatment of senescence-related disorders” (SPRINGTIDE VENTURES S.R.O., priority 2016, dated 2023).
Like-named read-outs stand apart in the source and are kept apart here.

Experiments:
[1] = tested on: control retinal pigment epithelial cells (RPE); test: Viability (annexin V/Hoechst) of control RPE cells; type: cell-based; settings: for % of Annexin V-/Hoechst-cells: ctrl
Description: (§3) The effect of compounds 7, 8, 10, 15 on primary senescent cells (retinal pigment epithelial cells (RPE) treated for 8 days with 100 μM 5-bromo-2-deoxyuridine (BrdU)) was tested.

[2] = tested on: senescent retinal pigment epithelial cells (RPE) treated with BrdU; test: Viability (annexin V/Hoechst) of senescent RPE cells; settings: for % of Annexin V-/Hoechst-cells: BrdU; for selectivity of cytotoxicity for senescent versus control cells (in words): senescent (BrdU) vs control RPE cells
Description: as §3

[3] = tested on: RPE cells with inducible ANT2; test: Viability of RPE cells transfected with inducible ANT2; type: cell-based
Excerpt: (§1) Adenin nucleotid translocase 2 (ANT2) is a protein important for translocation of ATP from cytoplasm to mitochondria unlike two other members of ANT family, ANT1 and ANT3, participating in classical transfer of ADP into mitochondria via complex V during mitochondrial respiration. ANT2 plays a key role in maintenance of mitochondrial potential and in preserving intact mitochondria, especially in tumour cells. […] All these experiments show a key role of ANT2 in compound 8 resistance.

PaTu (senescent) = test: Viability (Annexin V/Hoechst) of senescent pancreatic cells; type: cell-based; settings: 48 h
Description: (§2) We tested the effect of compound 8 on cultured senescent pancreatic cells. We used three pancreatic cell lines (PANC-1, PaTu and BxPC-3) exposed to 100 μM BrdU for 6 days to induce senescence. These senescent cells were treated with different doses of compound 8 for 48 h and their viability was assessed. […] RPE cells, as the most sensitive tested cells, were used as a control to establish the concentration at which compound 8 is not toxic for non-senescent cells.

BxPC-3 (senescent) = test: as above; type: cell-based; settings: 48 h
Description: as §2

PANC-1 (senescent) = test: as above; type: cell-based; settings: 48 h
Description: as §2

RPE (control) = test: Viability (Annexin V/Hoechst) of non-senescent control cells; type: cell-based; settings: 48 h
Description: as §2

[4] = tested on: B-gal positive (senescent) cells in lungs; test: B-gal staining of lungs of young and naturally old FVB mice treated with compound 8; type: in vivo; settings: for % of B-gal positive cells: 1 μg/g every week for 4 weeks
Description: We first analyzed the presence of senescent cells (using B-galactosidase (B-gal) staining) in organs in these two groups. From all tested organs (lungs, brain, white adipose tissue and stomach), we detected the biggest difference in presence of B-gal-positive cells in lungs (not shown). In the next step we treated the mice (6×19 month old mice+6×2 month old mice) with 1 dose of compound 8 (1 μg of compound 8/1 g mouse) every week for a period of 4 weeks. Mice (5×19 month old mice+6×2 month old mice) treated only with a corn oil without compound 8 were used as a control. After 4 weeks we removed lungs and detected percentage of B-gal positive cells in the tissues.

RPE cells = test: Lactate production in RPE cells; type: cell-based
Excerpt: as §1

[5] = tested on: p16 and p21 mRNA in PDX (triple-negative breast tumour); test: qRT PCR of senescence markers in patient-derived xenografts; type: in vivo, NOD scid gamma mice
Description: Importantly, we repeated this experiment using patient-derived xenografts (PDXs; triple-negative breast tumour) transplanted into NOD scid gamma mice and treated with compound 8 (0.375 mg of compound 8/mouse, twice per week for a period of 2-3 weeks).

[6] = tested on: senescent retinal pigment epithelial cells (RPE) treated with BrdU
Description: as §3

[7] = tested on: p16, p21 and PAI mRNA in FVB/cneu spontaneous tumours; test: qRT PCR of senescent markers in spontaneous tumours; type: in vivo, FVB mice
[8] = tested on: p16, p21 and plasminogen activator inhibitor (PAI) mRNA; test: qRT PCR of senescent markers in organs of young and old FVB mice; type: in vivo
[9] = tested on: p16, p21 and PAI mRNA in 4T1 cell-derived tumours; test: qRT PCR of senescent markers in 4T1 cell-derived tumours; type: in vivo, Balb-c mice
[10] = tested on: RPE cells (siNC / siANT2); test: Viability of RPE cells after ANT2 downregulation by siRNA; type: cell-based
Excerpt: as §1

[11] = PDX tumors, treated, 0.375 mg/mouse twice per week for 2-3 weeks
[12] = FVB/cneu tumors, treated, 0.2 mg/mouse twice per week for 2-3 weeks
[13] = BALBe/4T1 tumors, treated, 0.2 mg/mouse twice per week for 2-3 weeks

In the case of `CC/C(=C(\c1ccccc1)c1ccc(OCCN(C)C)cc1)c1ccccc1` [Tamoxifen], the “% of Annexin V-/Hoechst-cells” value ([1]; 1 μM) was 97.0%, the “% of Annexin V-/Hoechst-cells” value ([1]; 2.5 μM) was 96.7% and the “% of Annexin V-/Hoechst-cells” value ([1]; 5 μM) was 94.7%. For the same compound, the “% of Annexin V-/Hoechst-cells” value ([1]; 10 μM) was 55.8%, the “% of Annexin V-/Hoechst-cells” value ([1]; 20 μM) was 2.15% and the “decrease of viability (in words)” value ([2]; 10 μM, both senescent and control cells) was “by about half”. The “cytotoxicity (in words)” value ([2]; 20 μM, both senescent and control cells) was “highly cytotoxic”, the “% of Annexin V-/Hoechst-cells” value ([2]; 1 μM) was 73.8% and the “% of Annexin V-/Hoechst-cells” value ([2]; 2.5 μM) was 73.0%. For the same compound, the “% of Annexin V-/Hoechst-cells” value ([2]; 5 μM) was 70.1%, the “% of Annexin V-/Hoechst-cells” value ([2]; 10 μM) was 33.8% and the “% of Annexin V-/Hoechst-cells” value ([2]; 20 μM) was 4.3%. For the same compound, the “selectivity of cytotoxicity for senescent versus control cells (in words)” value (“selectivity of cytotoxicity” for short) [2] was “does not at any tested concentration have a significantly higher toxicity for senescent cells than for control cells” and the “cytotoxicity (in words)” value ([2]; up to 5 μM, senescent and control cells) was “does not show cytotoxicity”.
In the case of `CN(C)CCOc1ccc(/C(=C(/CCCCCCCCCCBr)c2ccccc2)c2ccccc2)cc1` [compound 7], the “% of Annexin V-/Hoechst-cells” value ([1]; 0.05 μM) was 94.6%, the “% of Annexin V-/Hoechst-cells” value ([1]; 0.1 μM) was 95.1% and the “% of Annexin V-/Hoechst-cells” value ([1]; 0.5 μM) was 91.4%. The “% of Annexin V-/Hoechst-cells” value ([2]; 0.05 μM) was 80.5%, the “% of Annexin V-/Hoechst-cells” value ([2]; 0.1 μM) was 78.3% and the “% of Annexin V-/Hoechst-cells” value ([2]; 0.5 μM) was 55.3%. For the same compound, the “selectivity of cytotoxicity” value [2] was “selectively more cytotoxic to senescent cells”.
For `CN(C)CCOc1ccc(/C(=C(/CCCCCCCCCC[P+](c2ccccc2)(c2ccccc2)c2ccccc2)c2ccccc2)c2ccccc2)cc1.[Br-]` [compound 8], the “resistance of senescent cells with induced ANT2 towards treatment (in words)” value ([3]; RPE BrdU + ANT2) was “increased resistance”, the “% of AnnexinV-/Hoechst-cells” value ([3]; RPE BrdU + ANT2 treated) was 53.8% and the “% of AnnexinV-/Hoechst-cells” value ([3]; RPE BrdU treated) was 6.8%. The “% of AnnexinV-/Hoechst-cells” value ([3]; RPE ctrl + ANT2 treated) was 95.2%, the “% of AnnexinV-/Hoechst-cells” value ([3]; RPE ctrl treated) was 95.0% and the “% of AnnexinV-/Hoechst-cells” value (PaTu (senescent); 0.1 μM) was 24.7 (+/− 3.25) %. For the same compound, the “% of AnnexinV-/Hoechst-cells” value (PaTu (senescent); 0.5 μM) was 10.3 (+/− 0.97) %, the “% of AnnexinV-/Hoechst-cells” value (PaTu (senescent); 1 μM) was 3.6 (+/− 3.24) % and the “% of AnnexinV-/Hoechst-cells” value (PaTu (senescent); 2.5 μM) was 2.4 (+/− 1.21) %. The “% of AnnexinV-/Hoechst-cells” value (BxPC-3 (senescent); 0.1 μM) was 47.7 (+/− 0.49) %, the “% of AnnexinV-/Hoechst-cells” value (BxPC-3 (senescent); 0.5 μM) was 35.9 (+/− 6.22) % and the “% of AnnexinV-/Hoechst-cells” value (BxPC-3 (senescent); 1 μM) was 4.8 (+/− 0.83) %. The “% of AnnexinV-/Hoechst-cells” value (BxPC-3 (senescent); 2.5 μM) was 3.9 (+/− 1.69) %, the “% of AnnexinV-/Hoechst-cells” value (PANC-1 (senescent); 0.1 μM) was 92.3 (+/− 0.78) % and the “% of AnnexinV-/Hoechst-cells” value (PANC-1 (senescent); 0.5 μM) was 92.7 (+/− 1.27) %. The “% of AnnexinV-/Hoechst-cells” value (PANC-1 (senescent); 1 μM) was 5.0 (+/− 1.97) %, the “% of AnnexinV-/Hoechst-cells” value (PANC-1 (senescent); 2.5 μM) was 3.1 (+/− 0.68) % and the “% of AnnexinV-/Hoechst-cells” value (RPE (control); 0.1 μM) was 98.9 (+/− 0.14) %. The “% of AnnexinV-/Hoechst-cells” value (RPE (control); 0.5 μM) was 98.8 (+/− 0.21) %, the “% of AnnexinV-/Hoechst-cells” value (RPE (control); 1 μM) was 98.3 (+/− 0.14) % and the “% of AnnexinV-/Hoechst-cells” value (RPE (control); 2.5 μM) was 99.1 (+/− 0.35) %. For the same compound, the “% of B-gal positive cells” value ([4]; 2 month old mice) was 0.3%, the “% of B-gal positive cells” value ([4]; 19 month old mice) was 0.7% and the “number of B-gal-positive cells after treatment (in words)” value ([4]; old mice) was “decrease of their number”. For the same compound, the “Lactate production (fold induction)” value (RPE cells; RPE BrdU (senescent) treated) was 8.2 fold induction, the “Lactate production (fold induction)” value (RPE cells; RPE ctrl treated) was 1.6 fold induction and the “increase of senescence markers (in words)” value ([5]; PDX in NOD scid gamma mice, 0.375 mg/mouse twice per week, 2-3 weeks) was “no increase”. The “p2l mRNA fold change” value [5, 11] was 0.72 (+/− 0.84) fold change, the “p16 mRNA fold change” value [5, 11] was 1.34 (+/− 1.25) fold change and the “selectivity of cytotoxicity” value [6] was “selectively more cytotoxic to senescent cells”. The “increase of senescent markers p16, p21 and PAI on the mRNA level (in words)” value ([7]; FVB mice with spontaneous tumours, 0.2 mg/mouse twice per week, 2-3 weeks) was “did not observe any increase”, the “PAI mRNA fold change” value [7, 12] was 1.93 (+/− 1.19) fold change and the “p16 mRNA fold change” value [7, 12] was 0.39 (+/− 0.24) fold change. The “p21 mRNA fold change” value [7, 12] was 1.94 (+/− 1.43) fold change, the “PAI mRNA fold change” value ([8]; kidney, 2 m treated) was 0.47 (+/− 0.09) fold change and the “p16 mRNA fold change” value ([8]; kidney, 2 m treated) was 0.02 (+/− 0.01) fold change. For the same compound, the “p21 mRNA fold change” value ([8]; kidney, 2 m treated) was 0.25 (+/− 0.05) fold change, the “PAI mRNA fold change” value ([8]; kidney, 19 m treated) was 0.79 (+/− 0.17) fold change and the “p16 mRNA fold change” value ([8]; kidney, 19 m treated) was 0.79 (+/− 0.31) fold change. For the same compound, the “p21 mRNA fold change” value ([8]; kidney, 19 m treated) was 0.34 (+/− 0.11) fold change, the “PAI mRNA fold change” value ([8]; lungs, 2 m treated) was 0.69 (+/− 0.12) fold change and the “p16 mRNA fold change” value ([8]; lungs, 2 m treated) was 0.63 (+/− 0.07) fold change. For the same compound, the “p21 mRNA fold change” value ([8]; lungs, 2 m treated) was 0.30 (+/− 0.06) fold change, the “PAI mRNA fold change” value ([8]; lungs, 19 m treated) was 0.93 (+/− 0.22) fold change and the “p16 mRNA fold change” value ([8]; lungs, 19 m treated) was 0.74 (+/− 0.12) fold change. For the same compound, the “p21 mRNA fold change” value ([8]; lungs, 19 m treated) was 0.39 (+/− 0.03) fold change, the “level of senescent markers p16, p21, PAI mRNA after treatment (in words)” value ([8]; old mouse tissue) was “decreased almost to control levels” and the “effect on control cells (in words)” value ([1]; control RPE) was “without any effect on control cells”. The “% of Annexin V-/Hoechst-cells” value ([1]; 1 μM) was 93.0%, the “% of Annexin V-/Hoechst-cells” value ([1]; 2.5 μM) was 90.3% and the “% of Annexin V-/Hoechst-cells” value ([1]; 5 μM) was 3.1%. For the same compound, the “PAI mRNA fold change” value [9, 13] was 0.59 (+/− 0.22) fold change, the “p16 mRNA fold change” value [9, 13] was 0.20 (+/− 0.08) fold change and the “p21 mRNA fold change” value [9, 13] was 0.77 (+/− 0.18) fold change. The “increase of senescent markers p16, p21 and PAI on the mRNA level (in words)” value ([9]; Balb-c mice with 4T1 tumours, 0.2 mg/mouse twice per week, 2-3 weeks) was “did not observe any increase”, the “% of AnnexinV-/Hoechst-cells” value ([10]; RPE siANT2 treated) was 20.7% and the “% of AnnexinV-/Hoechst-cells” value ([10]; RPE siNC treated) was 90.5%. The “death of control cells with downregulated ANT2 after treatment (in words)” value ([10]; RPE, ANT2 siRNA) was “increased death of these cells”, the “% of Annexin V-/Hoechst-cells” value ([2]; 1 μM) was 67.0% and the “% of Annexin V-/Hoechst-cells” value ([2]; 2.5 μM) was 13.9%. The “% of Annexin V-/Hoechst-cells” value ([2]; 5 μM) was 0.8% and the “effect on elimination of senescent cells (in words)” value ([2]; RPE, 100 μM BrdU for 8 days) was “specific effect on elimination of senescent cells”.
